pIC50: −log10 of the molar value.
Target: KRasG12C (M1-K169, biotinylated on the N-terminus) (Homo sapiens (Human), UniProt P01116, G12C)
Test: Covalent competition assay: scintillation proximity assay (SPA) quantifying covalent modification of KRASG12C
Type: binding
Details: competition with radiolabeled covalent probe (Compound B/Compound A), 2 hours incubation, 10 nM KRasG12C
Summary of the method: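 Scintillation proximity readout after streptavidin bead capture (30 min) of biotinylated KRasG12C(M1-K169):GDP, 10 nM final, which was covalently labelled over 2 h by 25 nM radio-probe plus 475 nM cold probe unless blocked by compound.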

SMILES	pIC50
C=CC(=O)N1CC2(CC(n3nc(N4CCC(O)(CN5CCOCC5)CC4(C)C)c(-c4c(Cl)c(Cl)cc5[nH]ncc45)c3C)C2)C1 (single isomer, unassigned) [Example 238a, 1-(6-(4-(5,6-dichloro-1H-indazol-4-yl)-3-(4-hydroxy-2,2-dimethyl-4-(morpholinomethyl)piperidin-1-yl)-5-methyl-1H-pyrazol-1-yl)-2-azaspiro[3.3]heptan-2-yl)prop-2-en-1-one]	7.44
C=CC(=O)N1CC2(CC(n3nc(N4CC[C@@H](CN5CCC6COCC65)CC4(C)C)c(-c4c(C)c(Cl)cc5[nH]ncc45)c3C)C2)C1 (single isomer, unassigned) [Example 306a, 1-(6-(4-(6-chloro-5-methyl-1H-indazol-4-yl)-3-((R)-4-(((3aR*,6aR*)-hexahydro-1H-furo[3,4-b]pyrrol-1-yl)methyl)-2,2-dimethylpiperidin-1-yl)-5-methyl-1H-pyrazol-1-yl)-2-azaspiro[3.3]heptan-2-yl)prop-2-en-1-one]	< 5.30
C=CC(=O)N1CC2(CC(n3nc(N4CCC(C)(O)CC4(C)C)c(-c4c(Cl)c(C)cc5[nH]ncc45)c3C)C2)C1 (single isomer, unassigned) [Example 28a, 1-(6-(4-(5-chloro-6-methyl-1H-indazol-4-yl)-3-(4-hydroxy-2,2,4-trimethylpiperidin-1-yl)-5-methyl-1H-pyrazol-1-yl)-2-azaspiro[3.3]heptan-2-yl)prop-2-en-1-one]	7.12
C=CC(=O)N1CC2(CC(n3nc(N4[C@H]5CC[C@@H]4CN(C)CC5)c(-c4c(Cl)c(C)cc5[nH]ncc45)c3C)C2)C1 [Example 64, 1-(6-(4-(5-chloro-6-methyl-1H-indazol-4-yl)-5-methyl-3-((1R,6S)-3-methyl-3,9-diazabicyclo[4.2.1]nonan-9-yl)-1H-pyrazol-1-yl)-2-azaspiro[3.3]heptan-2-yl)prop-2-en-1-one]	6.28
C=CC(=O)N1CC2(CC(n3nc(N4CC[C@@H](CN5CCN(CCOC)C(=O)C5)CC4(C)C)c(-c4c(Cl)c(Cl)cc5[nH]ncc45)c3C)C2)C1 (single isomer, unassigned) [Example 256b]	8.00
C=CC(=O)N1CC2(CC(n3nc(N4CCC(N5C6CCC5COC6)CC4(C)C)c(-c4c(Cl)c(C)cc5[nH]ncc45)c3C)C2)C1 [Example 75a, 1-(6-(3-(4-((1R,5S)-3-oxa-8-azabicyclo[3.2.1]octan-8-yl)-2,2-dimethylpiperidin-1-yl)-4-(5-chloro-6-methyl-1H-indazol-4-yl)-5-methyl-1H-pyrazol-1-yl)-2-azaspiro[3.3]heptan-2-yl)prop-2-en-1-one]	< 5.30
C=CC(=O)N1CC2(CC(n3nc(N4CCC(N(C)[C@@H]5CCOC5)CC4(C)C)c(-c4c(Cl)c(C)cc5[nH]ncc45)c3C)C2)C1 (single isomer, unassigned) [Example 84a]	< 5.30
C=CC(=O)N1CC2(CC(n3nc(N4CCN(C5CCOCC5)C[C@@]4(C)C(F)F)c(-c4c(Cl)c(C)cc5[nH]ncc45)c3C)C2)C1 (single isomer, unassigned) [Example 146a]	< 5.30
C=CC(=O)N1CC2(CC(n3nc(N4CCN(CCOC)CC45CCC5)c(-c4c(Cl)c(Cl)cc5[nH]ncc45)c3C)C2)C1 (single isomer, unassigned) [Example 76b, 1-(6-(4-(5,6-dichloro-1H-indazol-4-yl)-3-(8-(2-methoxyethyl)-5,8-diazaspiro[3.5]nonan-5-yl)-5-methyl-1H-pyrazol-1-yl)-2-azaspiro[3.3]heptan-2-yl)prop-2-en-1-one]	8.00
[2H]C1([2H])OC([2H])([2H])C([2H])([2H])N(C[C@@H]2CCN(c3nn(C4CC5(C4)CN(C(=O)C=C)C5)c(C)c3-c3c(Cl)c(Cl)cc4[nH]ncc34)C(C)(C)C2)C1([2H])[2H] (single isomer, unassigned) [Example 283b]	8.10
C=CC(=O)N1CC2(CC(n3nc(N4CCN(C[C@@H]5COCCO5)CC45CCC5)c(-c4c(Cl)c(Cl)cc5[nH]ncc45)c3C)C2)C1 (single isomer, unassigned) [Example 171b]	8.10
C=CC(=O)N1CC2(CC(n3nc(N4CCN(CCO)CC4(C)C)c(-c4c(Cl)c(C)cc5[nH]ncc45)c3C)C2)C1 (single isomer, unassigned) [Example 163a, 1-(6-(4-(5-chloro-6-methyl-1H-indazol-4-yl)-3-(4-(2-hydroxyethyl)-2,2-dimethylpiperazin-1-yl)-5-methyl-1H-pyrazol-1-yl)-2-azaspiro[3.3]heptan-2-yl)prop-2-en-1-one]	< 5.30
C=CC(=O)N1CC2(CC(n3nc(N4CC[C@@H](CN5CC6(CCOC6)C5)CC4(C)C)c(-c4c(Cl)c(Cl)cc5[nH]ncc45)c3C)C2)C1 (single isomer, unassigned) [Example 316a]	5.92
C=CC(=O)N1CC2(CC(n3nc(N4CCN(CCOC)CC45CCC5)c(-c4c(Cl)c(C)cc5[nH]ncc45)c3C)C2)C1 (single isomer, unassigned) [Example 71a, 1-(6-(4-(5-chloro-6-methyl-1H-indazol-4-yl)-3-(8-(2-methoxyethyl)-5,8-diazaspiro[3.5]nonan-5-yl)-5-methyl-1H-pyrazol-1-yl)-2-azaspiro[3.3]heptan-2-yl)prop-2-en-1-one]	5.92
C=CC(=O)N1CC2(CC(n3nc(N4CC[C@@H](CN(C)S(=O)(=O)N5CCN(C)CC5)CC4(C)C)c(-c4c(Cl)c(Cl)cc5[nH]ncc45)c3C)C2)C1 (single isomer, unassigned) [Example 304b]	8.00
C=CC(=O)N1CC2(CC(n3nc(N4CCN(CC(C)(C)O)CC45CCC5)c(-c4c(Cl)c(F)cc5[nH]ncc45)c3C)C2)C1 (single isomer, unassigned) [Example 167b, 1-(6-(4-(5-chloro-6-fluoro-1H-indazol-4-yl)-3-(8-(2-hydroxy-2-methylpropyl)-5,8-diazaspiro[3.5]nonan-5-yl)-5-methyl-1H-pyrazol-1-yl)-2-azaspiro[3.3]heptan-2-yl)prop-2-en-1-one]	7.51
C=CC(=O)N1CC2(CC(n3nc(N4CCC(N(C)C(=O)COC)CC4(C)C)c(-c4c(Cl)c(C)cc5[nH]ncc45)c3C)C2)C1 (single isomer, unassigned) [Example 97b, N-(1-(1-(2-acryloyl-2-azaspiro[3.3]heptan-6-yl)-4-(5-chloro-6-methyl-1H-indazol-4-yl)-5-methyl-1H-pyrazol-3-yl)-2,2-dimethylpiperidin-4-yl)-2-methoxy-N-methylacetamide]	5.77
C=CC(=O)N1CC2(CC(n3nc(N4CCN(C5COC5)CC4(C)C)c(-c4c(Cl)c(Cl)cc5[nH]ncc45)c3C)C2)C1 (single isomer, unassigned) [Example 73a, 1-(6-(4-(5,6-dichloro-1H-indazol-4-yl)-3-(2,2-dimethyl-4-(oxetan-3-yl)piperazin-1-yl)-5-methyl-1H-pyrazol-1-yl)-2-azaspiro[3.3]heptan-2-yl)prop-2-en-1-one]	< 5.30
C=CC(=O)N1CC2(CC(n3nc(N4CCN(C5CCOCC5)CC45CCC5)c(-c4c(Cl)c(Cl)cc5[nH]ncc45)c3C)C2)C1 (single isomer, unassigned) [Example 145a, 1-(6-(4-(5,6-dichloro-1H-indazol-4-yl)-5-methyl-3-(8-(tetrahydro-2H-pyran-4-yl)-5,8-diazaspiro[3.5]nonan-5-yl)-1H-pyrazol-1-yl)-2-azaspiro[3.3]heptan-2-yl)prop-2-en-1-one]	5.37
C=CC(=O)N1CC2(CC(n3nc(N4CCC(O)(CN5CCOCC5)CC4(C)C)c(-c4c(Cl)c(Cl)cc5[nH]ncc45)c3C)C2)C1 (single isomer, unassigned) [Example 237b, 1-(6-(4-(5,6-dichloro-1H-indazol-4-yl)-3-(4-hydroxy-2,2-dimethyl-4-(morpholinomethyl)piperidin-1-yl)-5-methyl-1H-pyrazol-1-yl)-2-azaspiro[3.3]heptan-2-yl)prop-2-en-1-one]	7.51
C=CC(=O)N1CC2(CC(n3nc(N4CCN(C5CCOC5)CC45CCC5)c(-c4c(Cl)c(C)cc5[nH]ncc45)c3C)C2)C1 (single isomer, unassigned) [Example 132c, 1-(6-(4-(5-chloro-6-methyl-1H-indazol-4-yl)-5-methyl-3-(8-(tetrahydrofuran-3-yl)-5,8-diazaspiro[3.5]nonan-5-yl)-1H-pyrazol-1-yl)-2-azaspiro[3.3]heptan-2-yl)prop-2-en-1-one]	7.62
C=CC(=O)N1CC2(CC(n3nc(N4CCC(N5CCOCC5)CC4(C)C)c(-c4c(Cl)c(C)cc5[nH]ncc45)c3C)C2)C1 (single isomer, unassigned) [Example 35a, 1-(6-(4-(5-chloro-6-methyl-1H-indazol-4-yl)-3-(2,2-dimethyl-4-morpholinopiperidin-1-yl)-5-methyl-1H-pyrazol-1-yl)-2-azaspiro[3.3]heptan-2-yl)prop-2-en-1-one]	6.60
C=CC(=O)N1CC2(CC(n3nc(N4CCN(C(=O)COC)CC45CCC5)c(-c4c(Cl)c(C)cc5[nH]ncc45)c3C)C2)C1 (single isomer, unassigned) [Example 123b, 1-(6-(4-(5-chloro-6-methyl-1H-indazol-4-yl)-3-(8-(2-methoxyacetyl)-5,8-diazaspiro[3.5]nonan-5-yl)-5-methyl-1H-pyrazol-1-yl)-2-azaspiro[3.3]heptan-2-yl)prop-2-en-1-one]	7.68
C=CC(=O)N1CC2(CC(n3nc(N4CC[C@@H](CN5CCOCC5)CC4(C)C)c(-c4c(Cl)c(Cl)cc5[nH]nc(N)c45)c3C)C2)C1 (single isomer, unassigned) [Example 241b]	6.27
C=CC(=O)N1CC2(CC(n3nc(N4CCN(C(C)=O)CC4)c(-c4c(C)c(C)cc5[nH]ncc45)c3C)C2)C1 (single isomer, unassigned) [Example 2b, 1-(6-(3-(4-acetylpiperazin-1-yl)-4-(5,6-dimethyl-1H-indazol-4-yl)-5-methyl-1H-pyrazol-1-yl)-2-azaspiro[3.3]heptan-2-yl)prop-2-en-1-one]	5.49

Source: patent US20240317721A1, “PYRAZOLYL DERIVATIVES AS INHIBITORS OF THE KRAS MUTANT PROTEIN” (NOVARTIS AG, priority 2021, published 2024)
